# Data: US8415342B2, “Besifloxacin ophthalmic composition for the treatment or control of infection” (Bausch & Lomb Incorporated, priority 2008, dated 2013)
# Where two headings read alike, the source gives them in different places.
# Legend:
# Format in all cases: cell-based
# [1] = system: Klebsiella oxytoca; test: MIC, CLSI broth microdilution, clinical isolates; settings: Klebsiella oxytoca (N = 50)
# [2] = system: Morganella morganii; test: MIC, CLSI broth microdilution, clinical isolates; settings: Morganella morganii (N = 51)
# [3] = system: Citrobacter koseri; test: MIC, CLSI broth microdilution, clinical isolates; settings: Citrobacter koseri (N = 100)
# [4] = system: Anaerobic Bacteria; test: MIC against anaerobic bacteria (Table 7); settings: for % S (percent of susceptible isolates): CLSI breakpoints
# [5] = system: Viridans streptococci; test: MIC, CLSI broth microdilution, clinical isolates; settings: Viridans streptococci (N = 156)
# [6] = system: Streptococcus pneumoniae; test: MIC, CLSI broth microdilution, clinical isolates
# [7] = system: Streptococcus pyogenes; test: MIC, CLSI broth microdilution, clinical isolates; settings: Streptococcus pyogenes (N = 101)
# [8] = system: Streptococcus agalactiae; test: MIC, CLSI broth microdilution, clinical isolates; settings: Streptococcus agalactiae (N = 100)
# [9] = system: Lancefield group C, F, G streptococci; test: MIC, CLSI broth microdilution, clinical isolates; settings: G streptococci (N = 50)
# [10] = system: Staphylococcus saprophyticus; test: MIC, CLSI broth microdilution, clinical isolates; settings: Staphylococcus saprophyticus (N = 101)
# [11] = system: Staphylococcus hominis; test: MIC, CLSI broth microdilution, clinical isolates; settings: Staphylococcus hominis (N = 50)
# [12] = system: Moraxella catarrhalis; test: MIC, CLSI broth microdilution, clinical isolates; settings: Moraxella catarrhalis (N = 101)
# [13] = system: Staphylococcus warneri; test: MIC, CLSI broth microdilution, clinical isolates; settings: Staphylococcus warneri (N = 50)
# [14] = system: Staphylococcus haemolyticus; test: MIC, CLSI broth microdilution, clinical isolates; settings: Staphylococcus haemolyticus (N = 101)
# [15] = system: Staphylococcus lugdunensis; test: MIC, CLSI broth microdilution, clinical isolates; settings: Staphylococcus lugdunensis (N = 15)
# [16] = system: Staphylococcus epidermidis; test: MIC, CLSI broth microdilution, clinical isolates; settings: for MIC50: Staphylococcus epidermidis
# [17] = system: Staphylococcus aureus; test: MIC, CLSI broth microdilution, clinical isolates; settings: for MIC50 / MIC90: Staphylococcus aureus
# [18] = Bacteroides fragilis, Bacteroides fragilis (N = 20), read-out: MIC50
# [19] = Bacteroides fragilis, Bacteroides fragilis (N = 20), read-out: MIC90
# [20] = Clostridium perfringens (N = 21)
# [21] = Clostridium perfringens, Clostridium perfringens (N = 21)
# [22] = Fusobacterium spp. (N = 21), read-out: MIC50
# [23] = Fusobacterium spp. (N = 21), read-out: MIC90
# [24] = Propionibacterium acnes (N = 21)
# [25] = Streptococcus pneumoniae (PISP, N = 2)
# [26] = Streptococcus pneumoniae (PSSP, N = 31)
# [27] = Streptococcus pneumoniae (all phenotypes, N = 35)
# [28] = Staphylococcus epidermidis (CNS, N = 6)
# [29] = Staphylococcus epidermidis (CS, N = 9)
# [30] = Staphylococcus epidermidis (MRSE, N = 9)
# [31] = Staphylococcus epidermidis (MSSE, N = 6)
# [32] = Staphylococcus epidermidis (all phenotypes, N = 15)
# [33] = Staphylococcus aureus (CNS, N = 16)
# [34] = Staphylococcus aureus (CS, N = 14)
# [35] = Staphylococcus aureus (MSSA, N = 19)
# [36] = Staphylococcus aureus (all phenotypes, N = 30)
# [37] = MRSA, Staphylococcus aureus (MRSA, N = 11)
# [38] = MSSA, Staphylococcus aureus (MSSA, N = 19)
molecule,measurement,setting,value
CC(C)(O/N=C(\C(=O)N[C@@H]1C(=O)N2C(C(=O)[O-])=C(C[n+]3ccccc3)CS[C@H]12)c1csc(N)n1)C(=O)O [Ceftazidime],% S,[1],100.0%
same,MIC50,[1],0.12 µg/mL
same,MIC90,[1],0.5 µg/mL
same,MIC Range,[1],0.03 to 1 µg/mL
same,% S,[2],82.4%
same,MIC50,[2],0.12 µg/mL
same,MIC90,[2],16 µg/mL
same,% S,[3],100.0%
same,MIC50,[3],0.12 µg/mL
same,MIC90,[3],0.5 µg/mL
same,MIC Range,[3],0.06 to 4 µg/mL
CCC[C@@H]1C[C@@H](C(=O)N[C@@H]([C@H]2O[C@H](SC)[C@H](O)[C@@H](O)[C@H]2O)[C@H](C)Cl)N(C)C1 [Clindamycin],MIC50,[4],≤ 0.03 µg/mL
same,MIC90,[4],> 8 µg/mL
same,% S (percent of susceptible isolates),[4]; Bacteroides fragilis (N = 20),65.0%
same,MIC50,[4]; [18],2 µg/mL
same,MIC90,[4]; [19],> 8 µg/mL
same,MIC Range,[4]; [20],0.06 to 4 µg/mL
same,% S (percent of susceptible isolates),[4]; [20],85.7%
same,MIC50,[4]; [21],2 µg/mL
same,MIC90,[4]; [21],4 µg/mL
same,MIC50,[4]; Cutibacterium acnes,0.06 µg/mL
same,MIC90,[4]; Cutibacterium acnes,0.12 µg/mL
same,MIC Range,[4]; Fusobacterium spp. (N = 21),0.06 to 8 µg/mL
same,% S (percent of susceptible isolates),[4]; Fusobacterium spp. (N = 21),95.2%
same,MIC50,[4]; [22],0.06 µg/mL
same,MIC90,[4]; [23],2 µg/mL
same,% S (percent of susceptible isolates),[4]; Prevotella spp. (N = 20),85.0%
same,MIC Range,[4]; [24],≦0.03-2 μg/mL
same,% S (percent of susceptible isolates),[4]; [24],100.0%
Penicillin,% S,[5],76.3%
same,MIC50,[5],0.06 µg/mL
same,MIC90,[5],1 µg/mL
same,% S,[6]; [25],0.0%
same,MIC Range,[6]; [25],4-4 μg/mL
same,% S,"[6]; Streptococcus pneumoniae (PRSP, N = 2)",0.0%
same,% S,[6]; [26],100.0%
same,MIC50,[6]; [26],≦0.015 μg/mL
same,MIC90,[6]; [26],0.25 µg/mL
same,MIC Range,[6]; [26],≦0.015-0.5 μg/mL
same,% S,[6]; [27],88.6%
same,MIC50,[6]; [27],≦0.015 μg/mL
same,MIC90,[6]; [27],4 µg/mL
same,% S,[7],100.0%
same,MIC50,[7],≦0.015 μg/mL
same,MIC90,[7],≦0.015 μg/mL
same,MIC Range,[7],≦0.015-0.06 μg/mL
same,% S,[8],100.0%
same,MIC50,[8],0.03 µg/mL
same,MIC90,[8],0.06 µg/mL
same,MIC Range,[8],≦0.015-0.06 μg/mL
same,% S,[9],100.0%
same,MIC50,[9],≦0.015 μg/mL
same,MIC90,[9],0.06 µg/mL
same,MIC Range,[9],≦0.015-0.06 μg/mL
Cc1onc(-c2ccccc2)c1C(=O)N[C@@H]1C(=O)N2[C@@H]1SC(C)(C)[C@@H]2C(=O)O [Oxacillin],% S,[10],9.9%
same,MIC50,[10],0.5 µg/mL
same,MIC90,[10],1 µg/mL
same,% S,[11],16.0%
same,MIC50,[11],> 8 µg/mL
same,MIC90,[11],> 8 µg/mL
same,MIC50,[12],4 µg/mL
same,MIC90,[12],8 µg/mL
same,% S,[13],46.0%
same,MIC50,[13],0.5 µg/mL
same,MIC90,[13],> 8 µg/mL
same,% S,[14],31.7%
same,MIC50,[14],> 8 µg/mL
same,MIC90,[14],> 8 µg/mL
same,% S,[15],60.0%
same,MIC50,[15],0.5 µg/mL
same,MIC90,[15],> 8 µg/mL
same,% S,[16]; [28],50.0%
same,MIC Range,[16]; [28],0.12 to 4 µg/mL
same,% S,[16]; [29],55.6%
same,MIC Range,[16]; [29],≦0.06-2 μg/mL
same,% S,[16]; [30],0.0%
same,MIC Range,[16]; [30],1 to 4 µg/mL
same,% S,[16]; [31],100.0%
same,MIC Range,[16]; [31],≦0.06-0.12 μg/mL
same,% S,[16]; [32],40.0%
same,MIC90,[16]; [32],2 µg/mL
same,MIC Range,[16]; [32],≦0.06-4 μg/mL
same,MIC50,"[16]; MRSE, Staphylococcus epidermidis (MRSE, N = 9)",1 µg/mL
same,MIC50,[16]; [28],1 µg/mL
same,MIC50,[16]; [29],0.12 µg/mL
same,MIC50,[16]; [31],≤ 0.06 µg/mL
same,MIC50,[16]; [32],1 µg/mL
same,% S,[17]; [33],50.0%
same,% S,[17]; [34],78.6%
same,% S,"[17]; Staphylococcus aureus (MRSA, N = 11)",0.0%
same,% S,[17]; [35],100.0%
same,MIC Range,[17]; [35],0.12 to 0.5 µg/mL
same,% S,[17]; [36],63.3%
same,MIC50,[17]; [37],> 8 µg/mL
same,MIC90,[17]; [37],> 8 µg/mL
same,MIC50,[17]; [38],0.25 µg/mL
same,MIC90,[17]; [38],0.5 µg/mL
same,MIC50,[17]; [33],0.5 µg/mL
same,MIC90,[17]; [33],> 8 µg/mL
same,MIC50,[17]; [34],0.25 µg/mL
same,MIC90,[17]; [34],> 8 µg/mL
same,MIC50,[17]; [36],0.25 µg/mL
same,MIC90,[17]; [36],> 8 µg/mL
Cc1ncc([N+](=O)[O-])n1CCO [Metronidazole],MIC50,[4],4 µg/mL
same,MIC90,[4],4 µg/mL
same,MIC Range,[4]; Bacteroides fragilis (N = 20),2-2 μg/mL
same,% S (percent of susceptible isolates),[4]; Bacteroides fragilis (N = 20),100.0%
same,MIC50,[4]; [18],2 µg/mL
same,MIC90,[4]; [19],2 µg/mL
same,MIC Range,[4]; [20],1 to 4 µg/mL
same,% S (percent of susceptible isolates),[4]; [20],100.0%
same,MIC50,[4]; [21],2 µg/mL
same,MIC90,[4]; [21],4 µg/mL
same,MIC50,[4]; Cutibacterium acnes,> 16 µg/mL
same,MIC90,[4]; Cutibacterium acnes,> 16 µg/mL
same,MIC Range,[4]; Fusobacterium spp. (N = 21),≦0.12-2 μg/mL
same,% S (percent of susceptible isolates),[4]; Fusobacterium spp. (N = 21),100.0%
same,MIC50,[4]; [22],0.25 µg/mL
same,MIC90,[4]; [23],1 µg/mL
same,MIC Range,[4]; Prevotella spp. (N = 20),0.25 to 8 µg/mL
same,% S (percent of susceptible isolates),[4]; Prevotella spp. (N = 20),100.0%
same,% S (percent of susceptible isolates),[4]; [24],0.0%
